# Source: patent US5019574A, “3,4-diaminoquinoline and 3,4-diamino-5,6,7,8-tetrahydroquinoline compounds useful for improving psychoneural function” (Chugai Seiyaku Kabushiki Kaisha, priority 1988, dated 1991)
# Tests used:
# [1] = system: norepinephrine uptake into the synaptosomes; test: Inhibition of catecholamine uptake: 3H-norepinephrine uptake into synaptosomes; format: biochemical, rats (F344/Crj); conditions: 1 μM; norepinephrine uptake in the absence of drug compounds taken as 100
# Experimental: (§1) Inhibition of Catecholamine Uptake:
# (§2) A crude synaptosomal fraction (P2) was obtained from the brain of rats (F344/Crj) in the usual manner. In accordance with the method of S. H. Snyder and J. T. Coyle described in Journal of Pharmacology and Experimental Therapeutics, 165(1), 78-86, 1969, the fraction P2 was incubated in a Krebs-Henseleit bicarbonate buffer solution at 37° C. for 10 minutes together with 50 nM ^3 H-norepinephrine (0.25 jμCi). Thereafter, the uptake of norepinephrine into the synaptosomes was measured by the filtration method. Selected compounds were added at a concentration of 1 μM to the solution being incubated and their effect on norepinephrine uptake was examined. The control drug was tetrahydroaminoacridine (THA).
# The results are shown in Table 3 in terms of percentage, with norepinephrine uptake in the absence of drug compounds being taken as 100.
# acetylcholinesterase = target: T1, acetylcholinesterase (Electrophorus electricus, UniProt O42275); test: Inhibition of acetylcholinesterase activity; format: biochemical; conditions: activity without drug compound taken as 100, average of three measurements, read-out: Inhibition rate (%)
# T1 construct: purchased Sigma C-2888
# T1 sequence (O42275 24-633): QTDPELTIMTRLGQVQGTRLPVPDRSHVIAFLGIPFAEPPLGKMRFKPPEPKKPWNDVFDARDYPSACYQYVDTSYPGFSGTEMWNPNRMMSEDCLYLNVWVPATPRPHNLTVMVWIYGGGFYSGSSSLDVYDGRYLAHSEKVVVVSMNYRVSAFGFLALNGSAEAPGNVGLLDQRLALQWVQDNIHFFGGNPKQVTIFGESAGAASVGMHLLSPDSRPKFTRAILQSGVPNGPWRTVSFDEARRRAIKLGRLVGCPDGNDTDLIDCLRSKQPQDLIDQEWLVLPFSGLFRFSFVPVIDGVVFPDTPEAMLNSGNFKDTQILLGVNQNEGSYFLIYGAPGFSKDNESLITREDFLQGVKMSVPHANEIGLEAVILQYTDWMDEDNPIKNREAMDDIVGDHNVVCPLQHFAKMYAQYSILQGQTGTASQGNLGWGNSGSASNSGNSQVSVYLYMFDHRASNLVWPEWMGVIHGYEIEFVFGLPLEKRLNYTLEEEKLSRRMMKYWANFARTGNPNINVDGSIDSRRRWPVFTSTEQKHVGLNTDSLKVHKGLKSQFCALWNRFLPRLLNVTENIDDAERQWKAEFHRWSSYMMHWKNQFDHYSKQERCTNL
# Experimental: Inhibition of Acetylcholinesterase Activity:
# Acetylcholinesterase activity was assayed in accordance with the method of S. H. Sterri and F. Fonnum described in European Journal of Biochemistry, 91: 215-222, 1978. The method consisted of incubating 0.5 μU of authentic acetylcholinesterase ([…]) (Sigma, No. C-2888) at 30° C. for 15 minutes in a 20 mM sodium phosphate buffer (pH 7.4). with 1.3 mM [1^-14 C] acetylcholine (0.025 μCi) being used as a substrate. Selected compounds of the general formula (I) were added at a concentration of 1 μM to the reaction solution and the resulting effect on enzymatic activity was evaluated.
# The result was obtained as the average of three measurements and shown in Table 2 in terms of percentage, with the activity for the case where no drum compound was added being taken as 100.
# male ICR mice = test: Improvement of memory and learning ability tested by passive avoidance response; format: in vivo; conditions: dose 10 (μg/kg i.p.); retention trial 24 hours after acquisition trial
# Experimental: Improvement of memory and Learning Ability Tested by Passive Avoidance Response:
# Four groups of male ICR mice (10-14 weeks old). each consisting of 10 animals, were used in the experiment. Except for one control group, the mice were administered with selected compounds of the present invention. The experimental chamber consisted of a light and a dark compartment and an electric current shock source was connected to the floor grid in the dark compartment.
# The experimental sessions consisted of acclimation. acquisition, and retention trials and were performed for […], one trial per day. In the acclimation trial, animals were placed in the light compartment of the experimental chamber and left there for 5 minutes to acclimate them to the apparatus. In the acquisition trial which was conducted on the 2nd day, the animals were placed in the light compartment and when they entered the dark compartment, they were confined and given an a.c. electric shock (1 mA) through the floor grid for 10 seconds. In the retention trial which was conducted 24 hours after the acquisition trial, the animals were placed in the light compartment of the chamber and the step-through latency (i.e., the time required for the animals to enter the dark compartment) was measured. A physiological saline solution was administered at the acclimation trial to all of the animals. At the acquisition trial, selected compounds were administered in amounts of 10 μg/kg of body weight (1 ml/100 g). The control group was administered the same amount of physiological saline solution 60 minutes before the start of the trial. All administrations were intraperitoneal.
# [2] = system: uptake of dopamine into synaptosomes; test: Inhibition of catecholamine uptake: 3H-dopamine uptake into synaptosomes; format: biochemical, rats (F344/Crj); conditions: 1 μM; dopamine uptake in the absence of drugs taken as 100
# Experimental: as §2, §1
# The uptake of dopamine into synaptosomes was measured by repeating the procedure of Test Example 2 except that 50 nM ^3 H-norepinephrine (0.25 μCi) was replaced by 15 nM ^3 H-dopamine (0.68 μCi). The control drug was tetrahydroaminoacridine (THA). The result is shown in Table 5 in terms of percentage, with dopamine uptake in the absence of drugs being taken as 100.
Compound,Inhibition rate (%) [1] [%],inhibition at 1 µM (acetylcholinesterase) [%],Step through latency (male ICR mice) [s],Inhibition rate (%) [2] [%]
"Nc1c(N2CCCCC2)cnc2ccccc12 [Compound 1, 4-amino-3-piperidinoquinoline]",69.1,–,–,–
CN1CCN(c2cnc3ccccc3c2N)CC1 [Compound 2],–,27.1,92.1 ± 13.5,–
"Nc1c2c(nc(C3CCCCC3O)c1N1CCOCC1)CCCC2 (stereo not drawn) [Compound 6, 4-amino-g-(2.-hydroxycyclohexyl)-3-morpholino-5,6,7,8-tetrahydroquinoline]",82.6,36.9,144.8 ± 45.1,–
"Nc1c(N2CCOCC2)c(Nc2ccccc2)nc2ccccc12 [Compound 13, 4-amino-2-anilino-3-morpholinoquinoline]",–,–,100.2 ± 17.8,–
"Nc1c2c(nc(Nc3ccccc3)c1N1CCOCC1)CCCC2 [Compound 15, 4-amino-2-anilino-3-morpholino-5,6,7,8-tetrahydroquinoline]",85.4,37.2,80.4 ± 14.6,–
Nc1c2c(nc(NC3CCCCC3)c1N1CCOCC1)CCCC2 [Compound 16],88.1,25.9,102.1 ± 22.3,–
"Nc1c(N2CCOCC2)c(C2CCCCC2)nc2ccccc12 [Compound 18, 4-amino-2-cyclohexyl-3-morpholinoquinoline]",–,–,116.4 ± 29.2,–
"Nc1c2c(nc(C3CCCCC3)c1N1CCOCC1)CCCC2 [Compound 19, 4-amino-2-cyclohexyl-3-morpholino-5,6,7,8-tetrahydroquinoline]",83.2,21.8,107.1 ± 29.9,–
CCN(CC)c1c(C2CCCCC2=O)nc2ccccc2c1N (stereo not drawn) [Compound 22],–,–,144.8 ± 25.5,–
CCN(CC)c1c(C2CCCCC2O)nc2c(c1N)CCCC2 (stereo not drawn) [Compound 23],73.7,–,–,83.0
CCN(CC)c1c(C2CCCCC2)nc2ccccc2c1N [Compound 24],68.2,–,94.2 ± 14.7,59.6
CCN(CC)c1c(C2CCCCC2)nc2c(c1N)CCCC2 [Compound 25],75.3,30.1,–,76.4
Nc1c(N2CCCCC2)c(C2CCCCC2)nc2ccccc12 [Compound 26],68.2,–,–,55.4
Nc1c2c(nc(C3CCCCC3)c1N1CCCCC1)CCCC2 [Compound 28],85.2,22.2,–,80.5
CCCN(CCC)c1c(C2CCCCC2O)nc2c(c1N)CCCC2 (stereo not drawn) [Compound 30],76.9,–,–,79.2
CCCN(CCC)c1c(C2CCCCC2)nc2c(c1N)CCCC2 [Compound 32],73.2,28.7,109.7 ± 16.6,71.0
CCN(CC)c1c(NC2CCCCC2)nc2c(c1N)CCCC2 [Compound 34],80.0,–,–,84.8
Nc1c(N2CCCCC2)c(Nc2ccccc2)nc2ccccc12 [Compound 35],–,28.3,–,–
CCCC(C)c1nc2ccccc2c(N)c1N1CCOCC1 (stereo not drawn) [Compound 39],71.9,–,108.3 ± 16.0,–
CCCC(C)c1nc2c(c(N)c1N1CCOCC1)CCCC2 (stereo not drawn) [Compound 40],–,–,113.1 ± 29.6,–
Nc1c2c(nc(C3CCCCC3=O)c1N1CCOCC1)CCCC2 (stereo not drawn) [Compound 41],–,4.2,–,–
"CCNc1nc2ccccc2c(N)c1N1CCOCC1 [Compound 43, 4-amino-2-ethylamino-3-morpholinoquinoline]",78.8,–,109.1 ± 13.4,–
CCOc1nc2ccccc2c(N)c1N1CCCCC1 [Compound 44],–,–,90.4 ± 12.4,–
CCNc1nc2ccccc2c(N)c1N1CCCCC1 [Compound 45],79.8,–,70.7 ± 6.8,82.3
Nc1ccnc(C2CCCCC2=O)c1N1CCCCC1 (stereo not drawn) [Compound 50],–,–,83.4 ± 14.8,–
